Test results reported in patent US20260091086A1, “POLYPEPTIDE COMBINATIONS AND USES THEREOF” (MEDIMMUNE LIMITED, priority 2024, published 2026).
Numbered stars: 1 amine (or outer) side, 2 acyl side, 3 side chain; on linkers, the order of the positions; unused ones are H or OH. Square brackets hold non-standard residues; d marks the D form. Side chains are listed from the residue outwards. Ends that are not written are not given here. * marks the point of attachment. C18 diacid = O=C(O)CCCCCCCCCCCCCCCCC(=O)*; γGlu = O=C(O)[C@H](CCC(=O)[*:2])N[*:1]; αMeF = C[C@](N)(Cc1ccccc1)C(=O)O; AEEA = NCCOCCOCC(=O)O; Aib = CC(C)(N)C(=O)O

Experiments:
AMY3R/CTR [1] = assay: Relative potency ratio, cAMP accumulation assays with 0.1% BSA, human receptors; format: cell-based; conditions: 0.1% bovine serum albumin, n ≥ 5; potencies relative to pramlintide 100%
AMY3R/CTR [2] = assay: Relative potency ratio, cAMP accumulation assays with 0.1% BSA, rat receptors; format: cell-based; conditions: 0.1% bovine serum albumin, n ≥ 5; potencies relative to pramlintide 100%
Experimental: Target engagement was estimated in the following way for each compound. The maximum concentration (Cmax) after subcutaneous injection was measured in separate rat pharmacokinetic studies and was dose-adjusted to the tested dose levels when appropriate, assuming dose linearity. Plasma protein binding was determined in vitro using 3B Pharmaceutical's Escalate Equilibrium Shift Assay or an in-house Surface Plasmon Resonance (SPR) assay. Peptide in vitro potency was determined via HTRF CAMP accumulation assay using HEK293 cells recombinantly expressing the rat calcitonin receptor or rat amylin receptor (calcitonin receptor plus RAMP3) in saline buffer containing 0.1% bovine serum albumin. The in vitro potencies (IC50s) for amylin and calcitonin were adjusted to unbound values by taking into account the albumin concentration in the assay and fraction unbound data, according to an established method (Wan H and Bergström F (2007), High Throughput Screening of Drug-Protein Binding in Drug Discovery, Journal of Liquid Chromatography & Related Technologies, 30:5, 681-700; doi: 10.1080/10826070701190989). Finally, the target engagement was calculated as the unbound Cmax divided by the unbound IC50, both for amylin and calcitonin. The Emax model was defined as aversion=E0+Emax×(ENG^h/(ENG^h+ED50^h)), where E0 is the baseline aversion, Emax is the maximum induced aversion, ENG is the receptor engagement, and h is the slope (Hill) parameter. Parameter estimation was performed according to a maximum likelihood approach with an additive error model, incorporating data from all compounds simultaneously. Uncertainty of parameter estimates was determined by bootstrapping, sampling single measurements randomly with replacement within each experiment (N=500). Numeric analyses were performed in MATLAB (R2023b; The MathWorks, Natick, MA). The aversion data are given as mean and standard error (N=9-11 per group). In this experiment, the LAA/SARA1 was that of SEQ ID NO: 11, SARA2 was eloralintide, DACRA1 was cagrilintide, and DACRA2 was petrelintide.

[3] = molecular target: human amylin receptor 3 (hAMY3R; complex of hCTR and hRAMP3) (human); assay: cell-based or functional assay
[4] = molecular target: rat amylin receptor (calcitonin receptor plus RAMP3) (rat) (UniProt P32214); assay: cell-based or functional assay
Wistar Han rats = assay: Example 4: 3-month subcutaneous study, body weight; format: in vivo, rat; conditions: for Body Weight Comparison, Day 92 vs. Control Group 1 Day 92 / Body Weight Gain (Day 92 vs Day −1) / Mean Body Weight at Day 92: dose levels 0/5, Group 5
Experimental: Study Design: Male (9-11 weeks of age) and female (10-11 weeks of age) Wistar Han rats were SC administered with Vehicle/Vehicle (group 1—for LAA of SEQ ID NO: 11 and GLP-1/GCG of SEQ ID NO: 35), LAA of SEQ ID NO: 11 and GLP-1/GCG of SEQ ID NO: 35 (group 2—500 and 5 μg/kg respectively), LAA of SEQ ID NO: 11 and GLP-1/GCG of SEQ ID NO: 35 (group 3—2000 and 5 μg/kg respectively), SEQ ID NO: 11 and Vehicle for SEQ ID NO: 35 (group 4—2000 μg/kg and 0 μg/kg respectively), or Vehicle for SEQ ID NO: 11 and SEQ ID NO: 35 (group 5—0 and 5 μg/kg respectively) daily for 91 days. Dosing for LAA of SEQ ID NO: 11 was dose escalated with group 2 receiving 250 μg/kg from day 1-5 and 500 μg/kg for duration of study, and groups 3 and 4 receiving 250 μg/kg SEQ ID NO: 11 from day 1-5, 500 μg/kg SEQ ID NO: 11 from days 7-13 and 2000 μg/kg for duration of study. There was a n=10/group per gender.

DIO rats = assay: Example 7: 28-day LAA and GLP/GIP dual agonist study; format: in vivo, rat; conditions: for body weight change: day 28
Experimental: Study Design: Male rats were fed a high-fat diet (45% kcal fat-D12451; Research Diets) or chow control matched diet (10% kcal fat-D12450K; […] Control rats were dosed SC with Vehicle. Body weight was monitored daily through-out study and body composition measured by EchoMRI at baseline (week-1) and end of study (week 4). […]

[5] = GLP/GIP mono-treatment 2 nmol/kg
[6] = GLP/GIP mono-treatment 30 nmol/kg

rat amylin receptor (calcitonin receptor plus RAMP3) (rat), sequence (P32214 25-516, chain 1 of 2): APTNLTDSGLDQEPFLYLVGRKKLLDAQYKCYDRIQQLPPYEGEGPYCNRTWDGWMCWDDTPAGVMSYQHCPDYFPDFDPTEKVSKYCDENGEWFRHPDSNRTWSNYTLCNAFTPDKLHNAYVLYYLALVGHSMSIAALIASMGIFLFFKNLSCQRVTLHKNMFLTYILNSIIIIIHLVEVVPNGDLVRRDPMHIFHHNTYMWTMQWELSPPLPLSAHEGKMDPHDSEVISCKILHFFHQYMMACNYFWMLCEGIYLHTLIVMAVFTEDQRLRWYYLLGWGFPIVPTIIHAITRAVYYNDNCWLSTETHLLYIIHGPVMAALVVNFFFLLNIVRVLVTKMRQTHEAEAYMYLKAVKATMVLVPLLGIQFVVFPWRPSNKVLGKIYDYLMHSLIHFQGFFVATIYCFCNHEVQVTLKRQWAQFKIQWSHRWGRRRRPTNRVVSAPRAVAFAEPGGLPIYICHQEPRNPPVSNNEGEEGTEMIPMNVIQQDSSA
rat amylin receptor (calcitonin receptor plus RAMP3) (rat), sequence (Q9JJ73 23-147, chain 2 of 2, further chain): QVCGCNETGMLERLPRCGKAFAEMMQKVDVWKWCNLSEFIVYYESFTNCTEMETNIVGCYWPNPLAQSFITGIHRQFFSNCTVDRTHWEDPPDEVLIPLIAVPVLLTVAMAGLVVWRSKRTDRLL
human amylin receptor 3 (hAMY3R; complex of hCTR and hRAMP3) (human), sequence (chain, as listed by the source limits assumed, chain 1 of 2): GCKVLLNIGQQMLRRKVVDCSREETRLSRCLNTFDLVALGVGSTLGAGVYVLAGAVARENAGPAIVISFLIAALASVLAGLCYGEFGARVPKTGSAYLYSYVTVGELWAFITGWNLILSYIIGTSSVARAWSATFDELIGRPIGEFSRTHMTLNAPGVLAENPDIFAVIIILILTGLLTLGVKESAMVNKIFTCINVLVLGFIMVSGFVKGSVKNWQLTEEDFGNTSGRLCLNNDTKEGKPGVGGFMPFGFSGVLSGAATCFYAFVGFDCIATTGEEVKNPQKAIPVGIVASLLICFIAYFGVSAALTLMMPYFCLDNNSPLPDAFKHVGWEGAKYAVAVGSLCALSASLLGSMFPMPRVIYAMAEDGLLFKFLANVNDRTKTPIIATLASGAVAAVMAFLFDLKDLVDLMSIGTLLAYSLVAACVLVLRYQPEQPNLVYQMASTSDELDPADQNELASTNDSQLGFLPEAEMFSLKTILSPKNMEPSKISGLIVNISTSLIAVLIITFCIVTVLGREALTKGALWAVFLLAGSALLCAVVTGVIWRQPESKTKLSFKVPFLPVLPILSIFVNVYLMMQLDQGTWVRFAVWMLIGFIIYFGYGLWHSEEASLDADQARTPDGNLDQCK
human amylin receptor 3 (hAMY3R; complex of hCTR and hRAMP3) (human), sequence (chain, as listed by the source limits assumed, chain 2 of 2): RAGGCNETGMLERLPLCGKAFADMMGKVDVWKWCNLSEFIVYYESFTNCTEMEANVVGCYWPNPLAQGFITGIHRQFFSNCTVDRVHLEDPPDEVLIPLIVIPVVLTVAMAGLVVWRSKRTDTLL

| Compound | Relative potency ratio (AMY3R/CTR), Human (AMY3R/CTR [1]) | Relative potency ratio (AMY3R/CTR), Rat (AMY3R/CTR [2]) | Relative potency ratio (AMY3R/CTR), Human; cAMP accumulation assay, 0.1% BSA [3] | Relative potency ratio (AMY3R/CTR), Rat; cAMP accumulation assay, 0.1% BSA [4] | other results |
| --- | --- | --- | --- | --- | --- |
| CC[C@H](C)[C@H](NC(=O)[C@@H]1CCCN1C(=O)CNC(=O)[C@H](Cc1ccccc1)NC(=O)[C@H](CC(N)=O)NC(=O)[C@H](CC(N)=O)NC(=O)[C@H](CO)NC(=O)[C@H](CO)NC(=O)[C@H](Cc1c[nH]cn1)NC(=O)[C@@H](NC(=O)[C@H](CC(C)C)NC(=O)[C@H](Cc1ccccc1)NC(=O)[C@H](CC(N)=O)NC(=O)[C@H](C)NC(=O)[C@H](CC(C)C)NC(=O)[C@H](CCCNC(=N)N)NC(=O)[C@H](CCC(N)=O)NC(=O)[C@@H](NC(=O)[C@H](C)NC(=O)[C@@H]1CSSC[C@H](NC(=O)[C@@H](N)CCCCN)C(=O)N[C@@H](CC(N)=O)C(=O)N[C@@H]([C@@H](C)O)C(=O)N[C@@H](C)C(=O)N[C@@H]([C@@H](C)O)C(=O)N1)[C@@H](C)O)C(C)C)C(=O)N[C@@H](CC(C)C)C(=O)N1CCC[C@H]1C(=O)N1CCC[C@H]1C(=O)N[C@H](C(=O)N[C@@H](CC(N)=O)C(=O)N[C@H](C(=O)NCC(=O)N[C@@H](CO)C(=O)N[C@@H](CC(N)=O)C(=O)N[C@H](C(=O)N[C@@H](Cc1ccc(O)cc1)C(N)=O)[C@@H](C)O)C(C)C)[C@@H](C)O [Pramlintide] | 1.0 | 1.0 | – | – | – |
| hAmylin (from UniProt P10997 34-70) (peptide) | – | – | 1.8 | 0.9 | – |
| H(Aib)QGTFTSDVSK(αMePhe)LDTK(O2Oc-O2Oc-γE-C18diacid)RARDFVQWLLE(Aib)G-acid (H[Aib]QGTFTSDVSK[αMeF]LDTK([AEEA-AEEA-γGlu-C18 diacid])RARDFVQWLLE[Aib]G-OH; N-terminus assumed; SMILES CC(C)C[C@H](NC(=O)[C@H](Cc1c[nH]c2ccccc12)NC(=O)[C@H](CCC(N)=O)NC(=O)[C@@H](NC(=O)[C@H](Cc1ccccc1)NC(=O)[C@H](CC(=O)O)NC(=O)[C@H](CCCNC(=N)N)NC(=O)[C@H](C)NC(=O)[C@H](CCCNC(=N)N)NC(=O)[C@H](CCCCNC(=O)COCCOCCNC(=O)COCCOCCNC(=O)CC[C@H](NC(=O)CCCCCCCCCCCCCCCCC(=O)O)C(=O)O)NC(=O)[C@@H](NC(=O)[C@H](CC(=O)O)NC(=O)[C@H](CC(C)C)NC(=O)[C@](C)(Cc1ccccc1)NC(=O)[C@H](CCCCN)NC(=O)[C@H](CO)NC(=O)[C@@H](NC(=O)[C@H](CC(=O)O)NC(=O)[C@H](CO)NC(=O)[C@@H](NC(=O)[C@H](Cc1ccccc1)NC(=O)[C@@H](NC(=O)CNC(=O)[C@H](CCC(N)=O)NC(=O)C(C)(C)NC(=O)[C@@H](N)Cc1c[nH]cn1)[C@@H](C)O)[C@@H](C)O)C(C)C)[C@@H](C)O)C(C)C)C(=O)N[C@@H](CC(C)C)C(=O)N[C@@H](CCC(=O)O)C(=O)NC(C)(C)C(=O)NCC(=O)O) [GLP-1/GCG of SEQ ID NO: 35] | – | – | – | – | Body weight at study day 92 vs Vehicle (Wistar Han rats; both male and female, groups 2-5): significantly lower; Body Weight Comparison, Day 92 vs. Control Group 1 Day 92 (Wistar Han rats; female): 90%; Body Weight Gain (Day 92 vs Day −1) (Wistar Han rats; female): 112%; Mean Body Weight at Day 92 (Wistar Han rats; female): 225.4 grams; Body Weight Comparison, Day 92 vs. Control Group 1 Day 92 (Wistar Han rats; male): 80%; Body Weight Gain (Day 92 vs Day −1) (Wistar Han rats; male): 119%; Mean Body Weight at Day 92 (Wistar Han rats; male): 325.5 grams |
| DACRA 1 (cagrilintide) (peptide) | – | – | 0.08 | 0.01 | – |
| petrelintide [DACRA 2] | 0.05 | 0.03 | – | – | – |
| DACRA 2 (petrelintide) (peptide) | – | – | 0.05 | 0.03 | – |
| tirzepatide [GLP/GIP] | – | – | – | – | change in lean mass (g) (DIO rats; [5]): no effect at 2 nmol/kg; change in lean mass (g) (DIO rats; [6]): significant reduction vs. vehicle; body weight change (DIO rats; [5]): −1.7%; body weight change (DIO rats; [6]): −8.9%; body weight change (DIO rats; mono-treatment 10 nmol/kg SC QD): −8.1%; change in fat mass (g) (DIO rats; end of study (week 4), EchoMRI, FIG. 6C): dose-dependent decrease in fat mass; change in lean mass (g) (DIO rats; end of study, EchoMRI, mono-treatment, FIG. 6D): dose-dependent decrease of lean mass |
| SARA 2 (eloralintide) (peptide) | – | – | 0.24 | 0.14 | – |
| eloralintide [SARA 2] | 0.24 | 0.14 | – | – | – |
| hAmylin: human amylin, non-lipidated (KCNTATCATQRLANFLVHSSNNFGAILSSTNVGSNTY; not fully specified (C-terminus, bridges); cysteine pairing not given here) | 1.8 | 0.9 | – | – | – |
